The source of these data is US20050250677A1, “Glycopeptide antibiotic derivatives” (priority 2002, published 2005).

What all share (type): cell-based
One test relates to HIV-2(ROD). The experiment in a line: Inhibition of HIV-2 (ROD)-induced cytopathicity (giant cell formation) in CEM cells. The note with it: read-out: EC50 HIV-2 (concentration required to inhibit HIV-induced giant cell formation by 50%); HIV-2, CEM cell cultures. As for the experimental part:
(§1) A variety of glycopeptide antibiotic derivatives of vancomycin, eremomycin and teicoplanin including their aglycon derivatives were evaluated for their inhibitory activity against HIV-1 (IIIB) and HIV-2(ROD) in CEM cell cultures.
For orientation: Cytopathic effects are the visible damage that an infection or toxin causes in cultured cells.

The next test deals with murine leukemia L1210. In words: Cytostatic activity assay, L1210 cells. To be noted: read-out: IC50 L1210 (compound concentration required to inhibit tumor cell proliferation by 50%).
The subject of test [1] is human lymphocyte Molt4/clone 8. In words: Cytostatic activity assay, Molt4/clone 8 cells. The note with it: read-out: IC50 Molt4/C8 (compound concentration required to inhibit tumor cell proliferation by 50%).
The test system of the next test is HIV-1 (IIIB). In words: Inhibition of HIV-1 (IIIB)-induced cytopathicity (giant cell formation) in CEM cells. On the procedure:
as §1

A further test deals with human lymphocyte CEM. In words: Cytostatic activity assay, CEM cells. The note with it: read-out: IC50 CEM (compound concentration required to inhibit tumor cell proliferation by 50%).
The mark [2] stands for this setting: read-out: EC50 HIV-1 (concentration required to inhibit HIV-induced giant cell formation by 50%), HIV-1, CEM cell cultures.

Like-named read-outs stand apart in the source and are kept apart here.

Regarding `CCCCc1ccc(CNC2C(Oc3c4cc5cc3Oc3ccc(cc3Cl)C(O)C3NC(=O)C(NC(=O)C5NC(=O)C5NC(=O)C(Cc6ccc(cc6)O4)NC(=O)C(NC)c4ccc(O)c(c4)Oc4cc(O)c(Cl)c5c4)c4ccc(O)c(c4)-c4c(O)cc(O)cc4C(C(=O)NCCCN(C)C)NC3=O)OC(C(=O)NCCCN(C)C)C(O)C2O)cc1` (centres unmarked) [Compound 12], the EC50 was over 50 µM in the test on HIV-2(ROD) and 12 ± 3.5 µM in the test on HIV-1 (IIIB) (setting [2]). Besides, the figures for the IC50 (with murine leukemia L1210; in test [1]; with human lymphocyte CEM) were 36 ± 14 µM, 66 ± 20 µM and over 250 µM, respectively.
Turning to `CCCCCCCCCC[N+](C)(C)CCCNC(=O)C1NC(=O)C2NC(=O)C(NC(=O)C3NC(=O)C(CC(N)=O)NC(=O)C(NC(=O)C(CC(C)C)NC)C(O)c4ccc(c(Cl)c4)Oc4cc3cc(c4OC3OC(CO)C(O)C(O)C3OC3CC(C)(N)C(O)C(C)O3)Oc3ccc(cc3Cl)C2O)c2ccc(O)c(c2)-c2c(O)cc(O)cc21` (centres unmarked) [Compound 2], the EC50 with HIV-2(ROD) was over 50 µM; in the test on HIV-1 (IIIB) (HIV-1 (IIIB), CEM cell cultures, read-out: EC50 against HIV-1), 12 µM; with HIV-1 (IIIB) (setting [2]) it was 5.5 ± 0.7 µM. The figures for the IC50 (in the test on murine leukemia L1210; in test [1]; in the test with human lymphocyte CEM) were 60 ± 8 µM, 53 ± 1 µM and 172 ± 15 µM, respectively.
As to `CCCCOc1ccc(CNC2C(Oc3c4cc5cc3Oc3ccc(cc3Cl)C(O)C3NC(=O)C(NC(=O)C5NC(=O)C5NC(=O)C(Cc6ccc(cc6)O4)NC(=O)C(N(C)Cc4ccc(OCCCC)cc4)c4ccc(O)c(c4)Oc4cc(O)c(Cl)c5c4)c4ccc(O)c(c4)-c4c(O)cc(O)cc4C(C(=O)NCCCN(C)C)NC3=O)OC(C(=O)NCCCN(C)C)C(O)C2O)cc1` (centres unmarked) [Compound 11], the EC50 with HIV-2(ROD) is over 10 µM; with HIV-1 (IIIB) (setting [2]) it was 5 ± 0.7 µM. The figures for the IC50 (in the test on murine leukemia L1210; in test [1]; with human lymphocyte CEM) were 20 ± 7.5 µM, 18 ± 2.5 µM and 80 ± 6 µM, respectively.
Regarding `CNC1C(=O)NC2Cc3ccc(cc3)Oc3cc4cc(c3OC3OC(C(=O)NCCC[N+](C)(C)Cc5ccc(-c6ccccc6)cc5)C(O)C(O)C3N)Oc3ccc(cc3Cl)C(O)C3NC(=O)C(NC(=O)C4NC(=O)C(NC2=O)c2cc(cc(O)c2Cl)Oc2cc1ccc2O)c1ccc(O)c(c1)-c1c(OC2OC(CO)C(O)C(O)C2O)cc(O)cc1C(C(=O)NCCC[N+](C)(C)Cc1ccc(-c2ccccc2)cc1)NC3=O` (centres unmarked) [Compound 10], the EC50 was over 10 µM in the test with HIV-2(ROD) and 4 ± 1.4 µM in the test on HIV-1 (IIIB) (setting [2]). In addition, the figures for the IC50 (in the test on murine leukemia L1210; in test [1]; in the test on human lymphocyte CEM) were 44 ± 2.9 µM, 27 ± 14 µM and 32 ± 5 µM, respectively.
Consider `O=C(NC1C(=O)NC2Cc3ccc(c(Cl)c3)Oc3cc4cc(c3O)Oc3ccc(cc3Cl)C(O)C3NC(=O)C(NC(=O)C4NC(=O)C(NC2=O)c2cc(O)cc(c2)Oc2cc1ccc2O)c1ccc(O)c(c1)-c1c(O)cc(O)cc1C(C(=O)O)NC3=O)OC12CC3CC(CC(C3)C1)C2` (centres unmarked) [Compound 49], for which the EC50 in the test on HIV-2(ROD) came out at 6 ± 1.4 µM; in the test on HIV-1 (IIIB) (setting [2]), 13 ± 9.9 µM. Moreover, the IC50 with murine leukemia L1210 came to 22 ± 0.1 µM; in test [1], 25 ± 0.99 µM; with human lymphocyte CEM it was 104 ± 3 µM.
As to `CCCCCCCCCC[N+](C)(C)CCCNCc1c(O)cc2c(c1O)-c1cc(ccc1O)C1NC(=O)C3NC(=O)C4NC(=O)C(Cc5ccc(cc5)Oc5cc3cc(c5OC3OC(C(=O)NCCCN(C)C)C(O)C(O)C3N)Oc3ccc(cc3Cl)C(O)C(NC1=O)C(=O)NC2C(=O)NCCCN(C)C)NC(=O)C(NC)c1ccc(O)c(c1)Oc1cc(O)c(Cl)c4c1` (centres unmarked) [Compound 14], the EC50 in the test with HIV-2(ROD) is at least 20 µM; in the test with HIV-1 (IIIB) (setting [2]), 3.5 ± 0.7 µM. For the same molecule, the IC50 with murine leukemia L1210 turned out to be 27 ± 0.3 µM; in test [1], 22 ± 4.7 µM; in the test with human lymphocyte CEM, 92 ± 5 µM.
`CCCCc1ccc(CNCc2c(O)cc3c(c2O)-c2cc(ccc2O)C2NC(=O)C4NC(=O)C5NC(=O)C(Cc6ccc(c(Cl)c6)Oc6cc4cc(c6O)Oc4ccc(cc4Cl)C(O)C(NC2=O)C(=O)NC3C(=O)NC)NC(=O)C(N)c2ccc(O)c(c2)Oc2cc(O)cc5c2)cc1` (centres unmarked) [Compound 48]: the figures for the EC50 with HIV-2(ROD) and in the test with HIV-1 (IIIB) (setting [2]) were 12.3 ± 6.8 µM and 9.7 ± 9 µM, respectively. Further, the IC50 (in the test with murine leukemia L1210; in test [1]; in the test on human lymphocyte CEM) was over 100 µM in each case.
As for `CN[C@H](CC(C)C)C(=O)N[C@H]1C(=O)N[C@@H](CC(N)=O)C(=O)N[C@H]2C(=O)N[C@H]3C(=O)N[C@H](C(=O)N[C@H](C(=O)O)c4cc(O)cc(O)c4-c4cc3ccc4O)[C@H](O)c3ccc(c(Cl)c3)Oc3cc2cc(c3O)Oc2ccc(cc2Cl)[C@H]1O` [Vancomycin aglycon], the EC50 in the test with HIV-2(ROD) came to 250 µM; with HIV-1 (IIIB) (setting [2]) it was 65 ± 7.1 µM. The IC50 (in the test on murine leukemia L1210; in test [1]; in the test on human lymphocyte CEM) was over 500 µM each time.
On to `C[N+](C)(C)CCCNC(=O)C1NC(=O)C2NC(=O)C(NC(=O)C3NC(=O)C4NC(=O)C(Cc5ccc(c(Cl)c5)Oc5cc3cc(c5O)Oc3ccc(cc3Cl)C2O)NC(=O)C(N)c2ccc(O)c(c2)Oc2cc(O)cc4c2)c2ccc(O)c(c2)-c2c1cc(O)c(CN1CCN(Cc3ccc(-c4ccccc4)cc3)CC1)c2O` (centres unmarked) [Compound 29], for which the EC50 came out at 22 ± 3.5 µM with HIV-2(ROD) and 4.5 ± 0.7 µM with HIV-1 (IIIB) (setting [2]). Moreover, the figures for the IC50 (in the test with murine leukemia L1210; in test [1]; in the test on human lymphocyte CEM) were 26 ± 8.1 µM, 35 ± 8.2 µM and over 250 µM, respectively.
In the case of `NCCCCCCCCCCNC(=O)C1NC(=O)C2NC(=O)C(NC(=O)C3NC(=O)C4NC(=O)C(Cc5ccc(c(Cl)c5)Oc5cc3cc(c5O)Oc3ccc(cc3Cl)C2O)NC(=O)C(N)c2ccc(O)c(c2)Oc2cc(O)cc4c2)c2ccc(O)c(c2)-c2c(O)cc(O)cc21` (centres unmarked) [Compound 43], the EC50 amounted to 12.5 ± 3.5 µM with HIV-2(ROD) and 6.5 ± 0.7 µM in the test with HIV-1 (IIIB) (setting [2]). In addition, the IC50 was at least 500 µM with murine leukemia L1210, 225 ± 8 µM in test [1] and 402 ± 138 µM with human lymphocyte CEM.
Take `CCCCc1ccc(CNCc2c(O)cc3c(c2O)-c2cc(ccc2O)C2NC(=O)C4NC(=O)C(CC(N)=O)NC(=O)C(NC(=O)C(CC(C)C)NC)C(O)c5ccc(c(Cl)c5)Oc5cc4cc(c5OC4OC(CO)C(O)C(O)C4OC4CC(C)(N)C(O)C(C)O4)Oc4ccc(cc4)C(OC4CC(C)(N)C(O)C(C)O4)C(NC2=O)C(=O)NC3C(=O)NC)cc1` (centres unmarked) [Compound 3]: the EC50 came out at 20 µM in the test on HIV-2(ROD) and 5.1 ± 3.3 µM with HIV-1 (IIIB) (setting [2]). The results for the IC50 (in the test on murine leukemia L1210; in test [1]; with human lymphocyte CEM) were 22 ± 0.3 µM, 24 ± 18 µM and 95 ± 14.1 µM, respectively.
In the case of `CCCCCCCCCCNCc1c(O)cc2c(c1O)-c1cc(ccc1O)C1NC(=O)C3NC(=O)C4NC(=O)C(Cc5ccc(c(Cl)c5)Oc5cc3cc(c5O)Oc3ccc(cc3Cl)C(O)C(NC1=O)C(=O)NC2C(=O)NCCCN1CCCCC1C)NC(=O)C(N)c1ccc(O)c(c1)Oc1cc(O)cc4c1` (centres unmarked) [Compound 22], the EC50 worked out at 7 µM in the test on HIV-2(ROD) and 1.3 ± 0.92 µM in the test with HIV-1 (IIIB) (setting [2]). Besides, the IC50 was 57 ± 15 µM in the test with murine leukemia L1210, 182 ± 31 µM in test [1] and 211 ± 1 µM with human lymphocyte CEM.
Taken in the same sequence, the figures for `CCCCCCCCCC[N+](C)(C)CCCNCc1c(O)cc2c(c1O)-c1cc(ccc1O)C1NC(=O)C3NC(=O)C4NC(=O)C(Cc5ccc(c(Cl)c5)Oc5cc3cc(c5O)Oc3ccc(cc3Cl)C(O)C(NC1=O)C(=O)NC2C(=O)NCCCCCCN)NC(=O)C(N)c1ccc(O)c(c1)Oc1cc(O)cc4c1` (centres unmarked) [Compound 42] were 7 µM, 1.8 ± 0.49 µM, 38 ± 1 µM, 72 ± 6 µM and 66 ± 2 µM.
As for `C[C@@H](NC(=O)[C@@H](C)NC(=O)CCCCCNC(=O)C1NC(=O)C2NC(=O)C(NC(=O)C3NC(=O)C4NC(=O)C(Cc5ccc(c(Cl)c5)Oc5cc3cc(c5O)Oc3ccc(cc3Cl)C2O)NC(=O)C(NC(=O)OC(C)(C)C)c2ccc(O)c(c2)Oc2cc(O)cc4c2)c2ccc(O)c(c2)-c2c(O)cc(O)cc21)C(=O)O` (some centres unmarked) [Compound 44], the EC50 was found to be 25 ± 7 µM in the test on HIV-2(ROD) and 12.5 ± 3.5 µM in the test on HIV-1 (IIIB) (setting [2]). Also, the IC50 (in the test on murine leukemia L1210; in test [1]; in the test on human lymphocyte CEM) was over 500 µM each time.
